Counter-ions that a name gives are not always drawn.
Experiments:
rat parathyroid cells = assay: Suppressing effect on PTH production, in vitro test using rat parathyroid cells (PTH (1-84) ELISA); format: cell-based; settings: primary cultured rat parathyroid cells, 1.15 mM Ca, 22 to 24 hours culture
Text: In Vitro Test Using Rat Parathyroid Cells
By using primary cultured cells prepared from the parathyroid in rats, suppressing effect on PTH production was examined according to the following in vitro test.
(1) Preparation and Culture of Rat Parathyroid Cells:
Thirty-six 10-weeks old male CD (SD) IGS rats (Crj series, grade: SPF, CHARLES RIVER LABORATORIES JAPAN, INC.) were euthanasically sacrificed under ether anesthesia, the thyroid gland together with the parathyroid glands were cut out under sterilized conditions, and preserved in ITS-containing DMEM/F-12 medium (low Ca). The parathyroid glands were separated from the obtained material under observation by stereoscopic microscope, and collected in the same medium. Next, the medium was discarded, the parathyroid glands were washed with a phosphate buffer solution (PBS(−)) containing no calcium and magnesium ions, 5 ml of a collagenase solution [PBS(−) containing 1.5 mg/ml of collagenase type IV (Gibco Co., catalogue No. 17104-019)] was added, and digested at 37° C. for 1 hour with shaking. After digestion, the enzyme solution was discarded, the parathyroid glands were quickly minced with a scalpel in a laboratory dish, and were collected in 7 ml of a collagenase solution, and digested again at 37° C. for 90 minutes with shaking.
Cell debris was removed using cell strainer, the residue was removed, and then, the cells were collected. They were washed twice with an ITS-containing DMEM/F-12 medium (low Ca) containing 5% FCS, and suspended in the same medium. The parathyroid cells were suspended at the concentration of about 5×10^4 cells/ml, and were seeded to 96-well plate (200 μl/well), and cultured (pre-culture) at 37° C. for about 24 hours in a CO2 incubator.
The ITS-containing DMEM/F-12 medium (low Ca) to be used mentioned above was prepared as follows. Ca-free DMEM (Dulbecco's modified Eagle's medium) (Gibco Co., catalogue No. 21068-028)(500 ml), F-12 (F-12 nutrient mixture; Gibco Co., catalogue No. 11765-054)(500 ml) and 10 ml of ITS (a mixture containing 5 μg/ml of insulin, 5 μg/ml of transferrin and 5 ng/ml of selenium) (ITS+Premix; BD Biosciences Co., catalogue No. 35435) were mixed. To the mixture was dissolved 3.5745 g of HEPES (NACALAI TESQUE Co., catalogue No. 17547-95), and 10 ml of 200 mM L-glutamine (Gibco Co., catalogue No. 25030-081) and 1 ml of Penicillin-Streptomycin solution (100×Penicillin-Streptomycin, liquid; Gibco Co., catalogue No. 15140-122) were added, and the resulting mixture was sterilized by filtration, and then, used. Ca concentration in the medium is about 0.15 mM.
(2) Test of Suppressing Effect on PTH Production
Rat parathyroid cells were pre-cultured as mentioned in the above (1), then, the medium was changed, and the cells were cultured for 22 to 24 hours in a medium to which a test compound and CaCl2 had been added (96-well plate, 200 μl/well). Various concentrations of the test compound and CaCl2 were added to a serum-free ITS-containing DMEM/F-12 medium (low Ca), and the resulting medium was used. When the test compound is to be added, CaCl2 was added so that the Ca concentration became 1.15 mM. […]
PTH (1-84) in the above-mentioned culture supernatant was measured by the ELISA Method, and determined as a PTH production value. […]
Based on the measured value (PTH production value), of the test compounds, the inhibition rate in PTH production was calculated. […]

human CaSR = molecular target: T1, human CaSR (Homo sapiens, UniProt P41180); assay: CaSR activating effect, in vitro test using CaSR expressing cells (intracellular calcium, Fura-2/FDSS); format: cell-based; settings: CHO cells stably expressing human CaSR and Gα16; change in intracellular calcium concentration
T1 construct: the full length cDNA encoding CaSR was obtained first as three divisional parts; expressed in transfected cells
T1 sequence (P41180 20-1078): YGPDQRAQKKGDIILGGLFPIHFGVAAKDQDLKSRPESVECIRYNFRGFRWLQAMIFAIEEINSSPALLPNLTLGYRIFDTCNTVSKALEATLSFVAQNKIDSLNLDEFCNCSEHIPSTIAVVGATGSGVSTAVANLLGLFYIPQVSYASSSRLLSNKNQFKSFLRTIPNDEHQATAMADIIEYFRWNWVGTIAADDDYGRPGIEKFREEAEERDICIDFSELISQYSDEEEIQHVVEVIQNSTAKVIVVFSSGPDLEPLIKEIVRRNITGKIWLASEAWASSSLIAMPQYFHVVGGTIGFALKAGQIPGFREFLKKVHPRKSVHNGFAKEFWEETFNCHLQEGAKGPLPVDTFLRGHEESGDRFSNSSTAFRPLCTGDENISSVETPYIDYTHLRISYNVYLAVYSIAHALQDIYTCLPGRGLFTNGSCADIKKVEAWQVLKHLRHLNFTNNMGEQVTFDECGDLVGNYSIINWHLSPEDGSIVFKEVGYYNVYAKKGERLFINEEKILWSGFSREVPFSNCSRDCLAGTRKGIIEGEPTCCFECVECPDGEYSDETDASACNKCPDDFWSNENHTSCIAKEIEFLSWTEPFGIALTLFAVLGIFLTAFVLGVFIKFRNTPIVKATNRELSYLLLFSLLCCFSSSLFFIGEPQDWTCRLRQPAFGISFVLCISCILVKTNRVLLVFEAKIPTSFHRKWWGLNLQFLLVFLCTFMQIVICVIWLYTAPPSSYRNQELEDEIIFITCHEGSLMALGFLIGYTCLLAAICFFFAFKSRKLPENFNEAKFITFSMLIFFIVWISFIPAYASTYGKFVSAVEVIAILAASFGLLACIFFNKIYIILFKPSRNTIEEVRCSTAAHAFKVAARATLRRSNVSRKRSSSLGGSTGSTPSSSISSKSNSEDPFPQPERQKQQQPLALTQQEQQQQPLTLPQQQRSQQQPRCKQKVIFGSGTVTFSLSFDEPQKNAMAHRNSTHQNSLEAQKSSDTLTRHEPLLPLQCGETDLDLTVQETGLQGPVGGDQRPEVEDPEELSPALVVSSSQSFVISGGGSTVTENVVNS
Text: In vitro test using CaSR expressing cells
CaSR is a member of G protein-coupled receptor (GPCR). When CaSR of cells are activated by stimulating with extracellular Ca^2+ ion or an agonist (a compound having CaSR activating effect), etc., phospholipase C(PLC) is activated through G protein (Gq), and an intracellular calcium concentration is increased.
Thus, an activating effect on CaSR was examined by using CaSR expressing cell line and referring to change in an intracellular calcium concentration as an index. Preparation of cell strains and a test using the same are, more specifically, carried out as mentioned in the following (1) and (2).
(1) Acquisition of Human CaSR Expressing Cell Line
cDNA fragment encoding human CaSR was obtained from human kidney derived cDNA library by PCR.
[Primer to be Used for PCR was Designed Based on Known Nucleic Acid Sequence Information on Human CaSR (GenBank/EMBL Accession No. D50855; GenBank/EMBL Accession No. NM000388;
• Aida et al., Biochem. Biophys. Res. Commun., 214:524-529, 1995; • Garrett et al., J. Biol. Chem., 270: 12919-12925, 1995, etc.). Also, the full length cDNA encoding CaSR was obtained first as three divisional parts.]
These cDNA fragments were adequately connected to an expression vector to obtain a plasmid for expressing a functional human CaSR in animal cells.
Also, this human CaSR expression plasmid was transfected to CHO cells with a Qα16 expression plasmid α plasmid which is to express a subunit (α16) of G protein], and selected from a medium containing neomycin (G418) to obtain stable expressing cell line.
The obtained cell line stably expressed CaSR of human and α16 subunit of G protein.
(2) Measurement of Calcium Concentration in Cells
By using the CaSR expressing cell line obtained in the above-mentioned (1), change in an intracellular calcium concentration was measured at the time when the cells were stimulated in the presence or in the absence of a test compound as follows.
First, cells were collected using a cell scraper, suspended in a solution comprising Hepes buffer [10 mM Hepes (7.3), 10 mM glucose, 140 mM NaCl, 5 mM KCl, 2 mM CaCl2, 1 mM MgCl2] to which 0.1% cremophor and 3 μM Fura-2 had been added, and reacted at 37° C. for 1 hour under the conditions wherein a test compound of various concentrations (or conditions not added).
After being washed, the cells suspended in Hepes buffer were seeded to a plate (about 2×10^5 cells per 1 well of 96-well plate), and fluorescent intensity (Ratio of 340/380 nm) was measured using FDSS (Functional Drug Screening Sysytem; Hamamatsu Photonics K. K.) to examine change in intracellular calcium concentrations.
CaSR activating effect was confirmed basing on the value (change in an intracellular calcium concentration) measured in the reaction carried out in the presence of the test compound, a CaSR activating ability was confirmed.
Also, from the measured values (change in an intracellular calcium concentration) of the test compound with various concentrations, a concentration/response curve was drawn to obtain an EC50 value (concentration of agonist giving a half maximal response).

| Molecule | IC50 (rat parathyroid cells) [nM] | EC50 (human CaSR) [µM] |
| --- | --- | --- |
| C[C@@H](N[C@H]1CCN(C(=O)Cc2ccccc2C(F)(F)F)C1)c1cccc2ccccc12 [Example 5.023] | < 10 | 0.42 |
| C[C@@H](N[C@H]1CCN(c2ccc(C(=O)O)cc2)C1)c1cccc2ccccc12 [Example 3.001, 4-[(S)-3-[(R)-1-(naphthalen-1-yl)ethylamino]pyrrolidin-1-yl]benzoic acid hydrochloride] | 8 | 0.29 |
| (S)-1-(1H-tetrazol-5-yl)pyrrolidin-3-yl-[(R)-1-(naphthalen-1-yl)ethyl]amine hydrochloride [Example 12.028] | 0.47 | 0.017 |
| C[C@@H](N[C@H]1CCN(c2ccc(S(=O)(=O)NCCN(C)C)cc2)C1)c1cccc2ccccc12 [Example 12.020] | 0.27 | 0.018 |
| C[C@@H](N[C@@H]1CCCN(c2ccccn2)C1)c1cccc2ccccc12 [Example 1.077] | 5.3 | 0.42 |
